According to patent US20230286923A1 (INIPHARM, INC., priority 2020, published 2023):

Key:
HSD17B13 enzyme [1] = target: T1, HSD17B13 enzyme (Homo sapiens (Human), UniProt Q7Z5P4); experiment: NADH detection assay (fluorescence based LTB3 assay) for HSD17B13 activity; assay type: biochemical; settings: substrate 25 µM LTB3, 3 mM NAD+, 125 nM enzyme
Description: The fluorescence based Leukotriene B3 (LTB3) assay monitors the fluorescence of NADH, which is generated from NAD+ during the dehydrogenation of the substrate LTB3. The reactions were performed in a 384-well plates (Greiner; #655076) in a 20 µl reaction volume containing the following reagents (final concentrations): 25 µM LTB3 (Cayman; #20109); 3 mM NAD^+ (Sigma; #N0623); 125 nM HSD17B13 enzyme (in-house; E. coli expressed His-tagged, purified, soluble protein); 1 M potassium phosphate buffer, pH 7.4; and 1% DMSO. Reactions were initiated by co-addition of NAD+ and enzyme, and monitored for 1 hour at 26.5° C. Generation of NADH was measured as the fluorescence signal (Excitation at 340 nm and Emission at 445 nm) at 1 hour minus the baseline fluorescence at t=0. Fluorescence signals in the absence of LTB3 (negative control values), were subtracted from all values so that the results reflected substrate-dependent production of NADH. NADH standards were included to allow the conversion of relative fluorescence units into rates of enzyme activity. Enzyme activity in the presence of test compounds was expressed as a percentage of the uninhibited enzyme activity, and plotted versus inhibitor concentration. Non-linear regression was performed using a four-parameter logistic model and Microsoft Excel Solver software Ten concentrations of inhibitor were tested in duplicate (in the range of 30 µM - 2.5 nM), and two independent concentration response assays were performed.

HSD17B13 enzyme [2] = target: T1, HSD17B13 enzyme; experiment: Estrone detection assay (LC/MS, conversion of estradiol to estrone) for HSD17B13 activity; assay type: biochemical; settings: substrate 4 µM estradiol, 6 mM NAD+, 30 nM enzyme

T1 sequence (Q7Z5P4 20-300): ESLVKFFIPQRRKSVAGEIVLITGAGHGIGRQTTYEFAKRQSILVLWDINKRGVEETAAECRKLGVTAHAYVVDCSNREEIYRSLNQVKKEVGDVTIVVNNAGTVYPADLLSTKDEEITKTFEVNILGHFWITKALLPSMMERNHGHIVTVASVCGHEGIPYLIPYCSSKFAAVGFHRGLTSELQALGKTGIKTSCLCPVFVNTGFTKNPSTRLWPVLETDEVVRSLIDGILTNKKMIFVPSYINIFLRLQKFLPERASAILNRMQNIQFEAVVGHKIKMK

Row | SMILES | IC50 (HSD17B13 enzyme [1]) [µM] | IC50 (HSD17B13 enzyme [2]) [µM]
1 | COc1ccccc1CCn1cnc2cccc(NC(=O)c3ccc(OCC(=O)O)c(F)c3)c2c1=O [Example 4, 2-(2-fluoro-4-((3-(2-methoxyphenethyl)-4-oxo-3,4-dihydroquinazolin-5-yl)carbamoyl)phenoxy)acetic acid] | > 10 | 1 to 10
2 | O=C(Nc1cccc2ncn(-c3cccnc3)c(=O)c12)c1ccc(O)c(Cl)c1 [Example 9, 3-chloro-4-hydroxy-N-(4-oxo-3-(pyridin-3-yl)-3,4-dihydroquinazolin-5-yl)benzamide] | > 10 | 0.1 to 1
